Source: ChEMBL document CHEMBL4417635, “2-hydroxyarylamide derivative or pharmaceutically acceptable salt thereof, preparation method thereof, and pharmaceutical composition for preventing or treating cancer containing same as active ingredient” (2013)

Experiments:
[1] = target: Transmembrane protease serine 4 (Homo sapiens) (UniProt Q9NRS4); test: (§1) Inhibition of TMPRSS4 serine protease domain (Val 205 to Leu 437 residues) (unknown origin) expressed in Escherichia coli BL21 (DE3) at 30 uM using […]-Gln-Ala-Arg-7-amido-4-methylcoumarin hydrochloride substrate and measured for 5 mins at 5 mins intervals by fluorescence based assay relative to control
Chain of Transmembrane protease serine 4 (Homo sapiens) (Q9NRS4 whole entry, the tested form may be a part): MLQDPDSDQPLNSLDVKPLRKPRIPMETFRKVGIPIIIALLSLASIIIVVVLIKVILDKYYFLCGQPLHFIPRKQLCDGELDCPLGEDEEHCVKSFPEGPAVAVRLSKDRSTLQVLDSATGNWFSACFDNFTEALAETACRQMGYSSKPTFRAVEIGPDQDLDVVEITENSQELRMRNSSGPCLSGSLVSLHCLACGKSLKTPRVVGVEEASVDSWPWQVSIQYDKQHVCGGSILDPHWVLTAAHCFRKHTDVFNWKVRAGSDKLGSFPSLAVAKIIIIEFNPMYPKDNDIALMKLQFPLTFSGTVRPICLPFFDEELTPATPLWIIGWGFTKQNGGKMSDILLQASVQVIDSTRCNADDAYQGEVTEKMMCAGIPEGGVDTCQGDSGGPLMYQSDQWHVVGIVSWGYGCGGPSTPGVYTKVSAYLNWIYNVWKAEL

[2] = target: Transmembrane protease serine 4 (Homo sapiens) (UniProt Q9NRS4); test: as §1, with “10” for “30”
[3] = target: Transmembrane protease serine 4 (Homo sapiens) (UniProt Q9NRS4); test: Inhibition of TMPRSS4 serine protease domain (Val 205 to Leu 437 residues) (unknown origin) expressed in Escherichia coli BL21 (DE3) using […]-Gln-Ala-Arg-7-amido-4-methylcoumarin hydrochloride substrate and measured for 5 mins at 5 mins intervals by fluorescence based assay relative to control
[4] = target: Transmembrane protease serine 4 (Homo sapiens) (UniProt Q9NRS4); test: as §1, with “100” for “30”
[5] = target: Transmembrane protease serine 4 (Homo sapiens) (UniProt Q9NRS4); test: Inhibition of TMPRSS4 (unknown origin) expressed in human SW480 cells assessed as reduction in cell migration at 0.8 uM incubated for 48 hrs by crystal violet staining based assay relative to control

SMILES | inhibition [1] | inhibition [2] | inhibition [3] | inhibition [4] | inhibition [5]
O=C(Nc1cc(C(F)(F)F)cc(C(F)(F)F)c1)c1cc(Br)ccc1O | 84% | 54% | Dose-dependent effect | – | –
O=C(Nc1cc(Cl)c(Cl)c(Cl)c1)c1cc(Cl)ccc1O | 23% | 6% | Dose-dependent effect | – | –
Cc1cc(C)nc(NC(=O)c2cc(Cl)ccc2O)n1 | 0% | – | Dose-dependent effect | 0% | –
CC(=O)Oc1ccc(Cl)cc1C(=O)Nc1cc(C(F)(F)F)cc(C(F)(F)F)c1 | 4% | 0% | Dose-dependent effect | – | –
O=C(Nc1cc(C(F)(F)F)c(Br)c(C(F)(F)F)c1)c1cc(Cl)ccc1O | 85% | 58% | Dose-dependent effect | – | –
O=C(Nc1ccc(Cl)cn1)c1cc(Cl)ccc1O | 14% | – | Dose-dependent effect | 55% | –
O=C(Nc1cccc(C(F)(F)F)c1)c1cc(Cl)ccc1O | 91% | 37% | Dose-dependent effect | – | –
O=C(Nc1c(F)c(F)nc(F)c1F)c1cc(Cl)ccc1O | 31% | – | Dose-dependent effect | 51% | –
O=C(Nc1cc(C(F)(F)F)cc(C(F)(F)F)c1)c1ccc(Cl)cc1O | 74% | 29% | Dose-dependent effect | – | –
O=C(Nc1cc(C(F)(F)F)ccc1Br)c1cc(Cl)ccc1O | 100% | 40% | Dose-dependent effect | – | –
O=C(Nc1cc(C(F)(F)F)cc(C(F)(F)F)c1)c1cc(Cl)cnc1O | 19% | 0% | Dose-dependent effect | – | –
NC(=O)c1ccc(O)c(C(=O)Nc2cc(C(F)(F)F)cc(C(F)(F)F)c2)c1 | 21% | 0% | Dose-dependent effect | – | –
O=C(Nc1cc(C(F)(F)F)cc(C(F)(F)F)c1Cl)c1cc(Cl)ccc1O | 100% | 43% | Dose-dependent effect | – | –
COc1c(C(F)(F)F)cc(NC(=O)c2cc(Cl)ccc2O)cc1C(F)(F)F | 80% | 56% | Dose-dependent effect | – | –
O=C(Nc1cc(C(F)(F)F)cc(C(F)(F)F)c1)c1cc(Cl)cc(Cl)c1O | 100% | 100% | Dose-dependent effect | – | –
O=C(Nc1cc(C(F)(F)F)cc(C(F)(F)F)c1)c1cc(Cl)ccc1OCc1ccccc1 | 6% | 0% | Dose-dependent effect | – | –
N#Cc1cccc(NC(=O)c2cc(Cl)ccc2O)c1 | 47% | 12% | Dose-dependent effect | 88% | –
Cc1cc(Cl)cc(C(=O)Nc2cc(C(F)(F)F)cc(C(F)(F)F)c2)c1O | 78% | 33% | Dose-dependent effect | – | –
O=C(Nc1cc(C(F)(F)F)ccc1F)c1cc(Cl)ccc1O | 100% | 67 to 100% | Dose-dependent effect | 100% | –

SMILES | inhibition [1] | inhibition [2] | inhibition [3] | inhibition [4] | inhibition [5]
O=C(Nc1ncccn1)c1cc(Cl)ccc1O | 0% | – | Dose-dependent effect | 2% | –
O=C(Nc1ccc(Br)c(C(F)(F)F)c1)c1cc(Cl)ccc1O | 46 to 93% | 30 to 80% | Dose-dependent effect | 98% | –
O=C(Nc1cc(Cl)cc(Cl)c1)c1cc(Cl)ccc1O | 58% | 15% | Dose-dependent effect | – | –
Cc1c(C(F)(F)F)cc(NC(=O)c2cc(Cl)ccc2O)cc1C(F)(F)F | 94% | 51% | Dose-dependent effect | – | –
O=C(Nc1cc(C(F)(F)F)cc(C(F)(F)F)c1)c1cnc2ccccc2c1O | 0% | 0% | Dose-dependent effect | – | –
O=C(Nc1cc(C(F)(F)F)cc(C(F)(F)F)c1)c1cc(F)ccc1O | 55% | 0% | Dose-dependent effect | – | –
O=C(Nc1cc(C(F)(F)F)cc(C(F)(F)F)c1)c1cccc(Cl)c1O | 93% | 61% | Dose-dependent effect | – | –
O=C(Nc1ccc(C(F)(F)F)cn1)c1cc(Cl)ccc1O | 25% | – | Dose-dependent effect | 47% | –
O=C(Nc1cc(C(F)(F)F)cc(C(F)(F)F)c1)c1ccc(C(F)(F)F)cc1O | 79% | 32% | Dose-dependent effect | – | –
O=C(Nc1ccc(C(F)(F)F)cc1)c1cc(Cl)ccc1O | 100% | 22% | Dose-dependent effect | – | –
O=C(Nc1ncc(C(F)(F)F)cc1Cl)c1cc(Cl)ccc1O | 0% | – | Dose-dependent effect | 0% | –
COc1ccc(O)c(C(=O)Nc2cc(C(F)(F)F)cc(C(F)(F)F)c2)c1 | 53% | 0% | Dose-dependent effect | – | –
O=C(Nc1nc(C(F)(F)F)cs1)c1cc(Cl)ccc1O | 61% | – | Dose-dependent effect | 100% | –
O=C(Nc1ccc(Cl)nc1)c1cc(Cl)ccc1O | 6% | – | Dose-dependent effect | 39% | –
Nc1ccc(O)c(C(=O)Nc2cc(C(F)(F)F)cc(C(F)(F)F)c2)c1 | 30% | 3% | Dose-dependent effect | – | –
O=C(Nc1cc(C(F)(F)F)ccc1Cl)c1cc(Cl)ccc1O | 99% | 64% | Dose-dependent effect | 100% | –
O=C(Nc1cccc(C(F)(F)F)c1C(F)(F)F)c1cc(Cl)ccc1O | 77% | 29% | Dose-dependent effect | – | –
Cc1cc(C)cc(NC(=O)c2cc(Cl)ccc2O)c1 | 44% | – | Dose-dependent effect | 56% | –
O=C(Nc1ccccn1)c1cc(Cl)ccc1O | 0% | – | Dose-dependent effect | 11% | –

SMILES | inhibition [1] | inhibition [2] | inhibition [3] | inhibition [4] | inhibition [5]
N#Cc1ccc(NC(=O)c2cc(Cl)ccc2O)cc1 | 29% | – | Dose-dependent effect | 69% | –
O=C(Nc1ccc(C(F)(F)F)cc1[N+](=O)[O-])c1cc(Cl)ccc1O | 98% | 53% | Dose-dependent effect | – | 76%
O=C(Nc1cc(C(F)(F)F)cc(C(F)(F)F)c1)c1cc([N+](=O)[O-])ccc1O | 78% | 33% | Dose-dependent effect | – | –
O=C(Nc1ccncc1Cl)c1cc(Cl)ccc1O | 8% | – | Dose-dependent effect | – | –
CC(=O)Nc1ccc(O)c(C(=O)Nc2cc(C(F)(F)F)cc(C(F)(F)F)c2)c1 | 0% | 0% | Dose-dependent effect | – | –
O=C(Nc1ccccc1)c1cc(Cl)ccc1O | 13% | – | Dose-dependent effect | 75% | –
O=C(Nc1cc(Br)cc(C(F)(F)F)c1)c1cc(Cl)ccc1O | 100% | 64% | Dose-dependent effect | 100% | –
O=C(Nc1ccnc(Cl)c1)c1cc(Cl)ccc1O | 35% | – | Dose-dependent effect | 21% | –
O=C(Nc1ccc(F)c(C(F)(F)F)c1)c1cc(Cl)ccc1O | 86% | 64% | Dose-dependent effect | 98% | –
O=C(NCc1cc(C(F)(F)F)cc(C(F)(F)F)c1)c1cc(Cl)ccc1O | 63% | 36% | Dose-dependent effect | – | –
O=C(Nc1ccc(C(F)(F)F)c(C(F)(F)F)c1)c1cc(Cl)ccc1O | 59% | 37% | Dose-dependent effect | – | –
O=C(Nc1cc(C(F)(F)F)cc(C(F)(F)F)c1)c1cc2ccccc2cc1O | 96% | 58% | Dose-dependent effect | – | 72%
Cc1ccc(O)c(C(=O)Nc2cc(C(F)(F)F)cc(C(F)(F)F)c2)c1 | 64% | 0% | Dose-dependent effect | – | –
O=C(Nc1cc(C(F)(F)F)ccc1C(F)(F)F)c1cc(Cl)ccc1O | 54% | 46% | Dose-dependent effect | – | –
Cc1csc(NC(=O)c2cc(Cl)ccc2O)n1 | 0% | – | Dose-dependent effect | 67% | –
O=C(Nc1cc(C(F)(F)F)cc(C(F)(F)F)c1)c1cc(-c2ccc(F)cc2F)ccc1O | 31% | 5% | Dose-dependent effect | – | –
O=C(Nc1cc(C(F)(F)F)cc(C(F)(F)F)c1)c1ccccc1O | 20% | 0% | Dose-dependent effect | – | –
N#Cc1ccc(O)c(C(=O)Nc2cc(C(F)(F)F)cc(C(F)(F)F)c2)c1 | 53% | 15% | Dose-dependent effect | – | –
O=C(Nc1nccs1)c1cc(Cl)ccc1O | 44% | – | Dose-dependent effect | 90% | –
